Several values for one entry are separate records, joined by “and”; a condition that tells them apart may be missing. Identical values can stand only once.
What was measured:
Donor 1 COP T-Cell Lines = assay: ATP proliferation assay (CellTiter Glo), Donor 1 COP T-cell lines, incl. reactivity to non-canonical GA peptides; type: cell-based, human; conditions: for luminescent ATP proliferation assay, mean / proliferation response to non-canonical GA peptides / ATP proliferation assay: Day 56; for luminescent ATP proliferation assay, mean: no antigen 5673 (Table 9); for Non-Canonical Peptide Non-Reactivity: proliferation <2 times no antigen control; for Nonreactive T-Cell Line / Reactive T-Cell Line: Donor 1 COP lines; for Nonreactive T-Cell Line: stimulation with the non-canonical GA peptide; for proliferation response to non-canonical GA peptides: 0, 3, 10, 30 μg/mL; for Reactive T-Cell Line: at least a 50% increase in proliferation relative to a control after stimulation with the non-canonical GA peptide; for response to GMA in comparison to COP: 10 μg/mL dose; for ATP Proliferation Assay, Mean: Day 56, second assay; for ATP proliferation assay: 48 hours after stimulation; for Proliferation (luminescent ATP assay), Mean: Day 56 of culturing
Method: (§1) Proliferation was evaluated by measuring ATP content using a luminescent method (CellTiter Glo Luminescent Cell Viability Assay, Promega, Madison, Wis., cat. #G7571) or by measuring BrdU uptake by ELISA (Millipore cat. #2752), in both cases following kit instructions. A split well format was used. Cells in each well were resuspended and 65 μl transferred to the wells of each of two new U-bottom 96-well plates, to generate the replicate plates. For the initial screening, the original 96-well plate received mitomycin-treated autologous PBMC as APC plus 10 μg/mL antigen (GA). A first replicate plate received 100 μl., mitomycin-treated PBMC alone (2×10^5), and no antigen, and a second replicate plate received 100 μL mitomycin-treated PBMC plus GA at a final concentration of 10 μg/mL. Therefore, all three plates received autologous APC (PBMC) treated with mitomycin C to prevent cell division. […] The latter two plates were incubated for 3 days at 37° C., 6% CO2 before adding CellTiter Glo or BrdU and measuring signal. IL-2 was added at 10 U/mL to the original 96-well plate for expansion on Day 17. For subsequent screenings, mitomycin-treated EBV-transformed autologous B-LCL (2×10^5 to 5×10^5 cells/mL) were used as APC.
COP-responsive T-cell lines were obtained from Donor 1. In the initial stimulation, isolated PBMC were plated at 1×10^5 cells per well (5×10^5 cells/mL) with 10 μg/mL Copaxone and cultured as described above. IL-2 was added to all wells on Days 4 and 7 of culture, and the wells screened for reactivity on Day 14 using a luminescent proliferation assay in split well format. The original plate was restimulated, and IL-2 added 4 days after restimulation.
(§2) T-cell line 222-2D8, generated from Donor 1 by initial stimulation with COP, was shown in at least two experiments to proliferate comparably following restimulation with GMA and COP. […] ATP levels were measured at 48 hours after stimulation. The control in the GMA series was no antigen, and the control in the COP series was MBP. The response to GMA in comparison to COP at the 10 μg/mL dose in this assay was 103.4%.
In a second ATP proliferation assay, carried out on Day 56 or culturing following stimulation with 1, 3, or 10 μg/mL of GMA or COP, the response to GMA in comparison to COP at the 10 μg/mL dose was 107.1%.
as §2, with “line 222-2F1,” for “line 222-2D8,”, “Donor 222” for “Donor 1”, “was 85.1%.” for “was 103.4%.”
On Day 56 of culturing, after six total rounds of stimulation, cell line 222-2F12 was assayed for proliferation in response to stimulation with GA and a series of non-canonical peptides. For the assay, 0, 3, 10, or 30 μg/mL of each of peptides GL 14, GLT 631, GAT 111, and GAT 631, COP, and GMA, were added to the T-cell lines at 1×10^5 cells/mL, in the presence of mitomycin C-treated autologous B-LCL. Proliferation was measured by luminescent ATP assay. Cell line 222-2F12 responded to GL 14 at 3 μg/mL, and not to the other non-canonical GA peptides tested. The response to GMA in comparison to COP at the 10 μg/mL dose in this assay was 99.4%.
The cultures were restimulated on days 46, 56, 67 and 75. On Day 56, cell lines 222-2D8, 222-1H12, 222-2F12, 222-2B8, 222-105, 222-2B11, and 222-2E1 again were tested for reactivity to stimulation with 1, 3, or 10 μg/mL of GMA or COP in a proliferation assay. ATP levels were measured in all seven cell lines at 48 hours (results in FIGS. 5A-G) after stimulation. The control in the GMA series was no antigen, and the control in the COP series was MBP. […]

[1] = system: Donor 1 GMA Expanded T-Cell Lines (222-AG11, 222-AG12, 222-BA11, 222-BC11); assay: ATP proliferation assay (CellTiter Glo), Donor 1 GMA expanded T-cell lines, incl. reactivity to non-canonical GA peptides; type: cell-based, human; conditions: for Non-Canonical Peptide Non-Reactivity: 222-AG12, proliferation <2 times no antigen control; for Nonreactive T-Cell Line: Donor 1 GMA expanded lines, stimulation with the non-canonical GA peptide; for Proliferation (luminescent ATP assay), Mean: T-cell line 222-AG12, autologous B-LCL
Method: as §1
On Day 24, cells from the wells corresponding to the eight presumptive GA-specific human T-cell lines listed in Table 4 were transferred to a 24-well plate and expanded by stimulating with 10 μg/mL GMA and mitomycin-treated autologous PBMC as APC (3×10^6 per well, i.e., 1.5×10^6/mL). On Day 32 four of the eight lines, 222-BA11, 222-BC11, 222-AG11, and 222-AG12, were stimulated with 0, 1, 10 and 100 μg/mL GMA and tested in a 96-well plate for a proliferative response to GMA using an ATP assay, again using autologous PBMC as APC (2×10^5 per well, i.e., 1×10^6/mL). […] FIGS. 2A and B show the results of the ATP proliferation assay carried out using 222-AG12, 222-BC11, 222-AG11, and 222-BA11 at Day 35 (control=no antigen). FIGS. 3A-C compare the results of ATP proliferation assays carried out after stimulation with varying concentrations of GMA or Copaxone as indicated, using cell lines 222-BA11, 222-BC11, and 222-AG12.
Donor 1 GMA T-cell line 222-AG12 was assayed for proliferation following stimulation with 0, 1, 10, and 30 μg/mL each of peptides GLT 631, GAT 631, GAT 111, LT 11, GT 11, GL 14, COP, and GMA, at a T-cell concentration of 2×10^5 cells/mL, in the presence of mitomycin C-treated autologous B-LCL. Line 222-AG12 was assayed after 3 rounds of restimulation (4 total stimulations). Proliferation was measured by luminescent ATP assay.

Row | Substance | luminescent ATP proliferation assay, mean (Donor 1 COP T-Cell Lines; 222-2F12, 3 μg/mL) | luminescent ATP proliferation assay, mean (Donor 1 COP T-Cell Lines; 222-2F12, 10 μg/mL) | luminescent ATP proliferation assay, mean (Donor 1 COP T-Cell Lines; 222-2F12, 30 μg/mL) | Non-Canonical Peptide Non-Reactivity (Donor 1 COP T-Cell Lines; 222-2F12) | Nonreactive T-Cell Line (Donor 1 COP T-Cell Lines) | Non-Canonical Peptide Non-Reactivity [1] | Nonreactive T-Cell Line [1] | Proliferation (luminescent ATP assay), Mean ([1]; 1 ug/mL antigen) [RLU] | Proliferation (luminescent ATP assay), Mean ([1]; 10 ug/mL antigen) [RLU] | Proliferation (luminescent ATP assay), Mean ([1]; 30 ug/mL antigen) [RLU] | other results
1 | poly (Glu-Ala-Tyr; 1:1:1) [GAT 111] | 3914 | 3590 | 2430 | GAT 111 | 222-2F12 (Donor 1) and 222-1H12 (Donor 1) | GAT 111 | 222-AG12 (Donor 1) | 3391 | 2568 | 2245 | –
2 | poly (Glu-Lys-Tyr; 6:3:1) [GLT 631] | 5277 | 4934 | 5217 | GLT 631 | 222-2F12 (Donor 1) | GLT 631 | 222-AG12 (Donor 1) | 3801 | 4002 | 5292 | proliferation response to non-canonical GA peptides (Donor 1 COP T-Cell Lines; 222-1H12): responded; Reactive T-Cell Line (Donor 1 COP T-Cell Lines): 222-1H12 (Donor 1)
3 | glatiramer acetate [GMA] | 232779 | 228761 | 125994 | – | – | – | – | – | – | – | response to GMA in comparison to COP (Donor 1 COP T-Cell Lines; 222-2D8, Day 56 (Table 6)): 103.4%; response to GMA in comparison to COP (Donor 1 COP T-Cell Lines; 222-2D8, second assay (Table 7)): 107.1%; ATP Proliferation Assay, Mean (Donor 1 COP T-Cell Lines; 222-2D8, 1 μg/mL (Table 7)): 2078; ATP Proliferation Assay, Mean (Donor 1 COP T-Cell Lines; 222-2D8, 3 μg/mL (Table 7)): 149752; ATP Proliferation Assay, Mean (Donor 1 COP T-Cell Lines; 222-2D8, 10 μg/mL (Table 7)): 156417; ATP proliferation assay (Donor 1 COP T-Cell Lines; 222-2D8, 1 μg/mL (Table 6)): 4369; ATP proliferation assay (Donor 1 COP T-Cell Lines; 222-2D8, 3 μg/mL (Table 6)): 7480; ATP proliferation assay (Donor 1 COP T-Cell Lines; 222-2D8, 10 μg/mL (Table 6)): 12793; response to GMA in comparison to COP (Donor 1 COP T-Cell Lines; 222-2F12 (printed 222-2F1), Day 56 (Table 8)): 85.1%; response to GMA in comparison to COP (Donor 1 COP T-Cell Lines; 222-2F12, Day 56 (Table 9)): 99.4%; ATP proliferation assay (Donor 1 COP T-Cell Lines; 222-2F12, 1 μg/mL (Table 8)): 6500; ATP proliferation assay (Donor 1 COP T-Cell Lines; 222-2F12, 3 μg/mL (Table 8)): 8520; ATP proliferation assay (Donor 1 COP T-Cell Lines; 222-2F12, 10 μg/mL (Table 8)): 12382; Proliferation (luminescent ATP assay), Mean (Donor 1 COP T-Cell Lines; T-cell line 222-1H12, 3 μg/mL antigen, 0 μg/mL 5974): 141486 RLU; Proliferation (luminescent ATP assay), Mean (Donor 1 COP T-Cell Lines; T-cell line 222-1H12, 10 μg/mL antigen, 0 μg/mL 5974): 167193 RLU; Proliferation (luminescent ATP assay), Mean (Donor 1 COP T-Cell Lines; T-cell line 222-1H12, 30 μg/mL antigen, 0 μg/mL 5974): 82376 RLU; Proliferation (luminescent ATP assay), Mean (Donor 1 COP T-Cell Lines; T-cell line 222-2F12, 3 μg/mL antigen, 0 μg/mL 5673): 232779; Proliferation (luminescent ATP assay), Mean (Donor 1 COP T-Cell Lines; T-cell line 222-2F12, 10 μg/mL antigen, 0 μg/mL 5673): 228761; Proliferation (luminescent ATP assay), Mean (Donor 1 COP T-Cell Lines; T-cell line 222-2F12, 30 μg/mL antigen, 0 μg/mL 5673): 125994; proliferative response relative to control, dose comparison ([1]; 222-BA11, 222-BC11, 222-AG11, 222-AG12, Day 32, 0, 1, 10, 100 μg/mL): best proliferative response relative to control was observed in the cells stimulated with 10 μg/mL
4 | poly (Glu-Ala-Tyr; 6:3:1) [GAT 631] | 4342 | 3226 | 3071 | GAT 631 | 222-2F12 (Donor 1) and 222-1H12 (Donor 1) | GAT 631 | 222-AG12 (Donor 1) | 3442 | 3217 | 3548 | –
5 | poly (Glu-Lys; 1:4) [GL 14] | 17007 | 331 | 203 | – | 222-1H12 (Donor 1) | GL 14 | 222-AG12 (Donor 1) | 3531 | 55 | 43 | proliferation response to non-canonical GA peptides (Donor 1 COP T-Cell Lines; 222-2F12, GL 14 response at 3 μg/mL): responded; Non-Canonical Peptide Reactivity (Donor 1 COP T-Cell Lines; 222-2F12, at least one proliferation value >=2 times no antigen control): GL 14; Reactive T-Cell Line (Donor 1 COP T-Cell Lines): 222-2F12 (Donor 1)
6 | poly (Glu-Tyr; 1:1) [GT 11] | – | – | – | – | – | GT 11 | 222-AG12 (Donor 1) | 2650 | 3285 | 2231 | –
7 | poly (Lys-Tyr; 1:1) [LT 11] | – | – | – | – | – | LT 11 | 222-AG12 (Donor 1) | 3452 | 4242 | 2347 | –

Reference: patent US9995734B2, “Human T cell line assay for evaluating the immunologic identity of glatiramer acetate preparations” (Mylan Inc., priority 2013, dated 2018)
